pIC50: −log10 of the molar value.
What follows are molecules tested on 22Rv1-Enz^R (assay: 22Rv1-Enz^R cell proliferation assay). Details: human prostate cancer cell line 22Rv1-Enz^R; 6-day culture, cell media changed every 24 hours; half maximal growth inhibition constant; read-out: 22Rv1-Enz^R proliferation assay GIC50.
Format: cell-based
Method: The human prostate cancer cell line, 22Rv1 has been reported to express a high level of AR-V7. According to one procedure, 22Rv1 is seeded at 50,000 cells/well on a 24-well plate in quadruplicate and treated with test compounds in concentrations ranging up to 20 μM for four days. Standard culture media is RPMI-1640 supplemented with 10% fetal bovine serum. The test compound initially is dissolved in DMSO at 50 mM. This stock solution is then diluted as needed for the indicated concentrations. At the end of the four-day period, cells are harvested using 1% trypsin and counted using an automated cell counter.
Cell Culture. Human CaP cell lines, LNCaP, 22Rv1, VCaP, PC3, and DU145 are obtained from the American Type Culture Collection (ATCC) and maintained in the standard culture media: RPMI-1640 supplemented with 10% fetal bovine serum (FBS). LNCaP, 22Rv1, and VCaP are androgen-responsive cell lines, while PC3 and DU145 are not. To establish SAT resistant CaP cell lines, LNCaP, 22Rv1, and VCaP are treated continuously with 10-50 μM abiraterone, apalutamide, darolutamide, or enzalutamide. After 3-6 months, stable cell lines are established and designated as LNCaP-Abi^R, LNCaP-Apa^R, LNCap-Daro^R, LNcaP-Enz^R, VcaP-Abi^R, VCaP-Apa^R, VCaP-Daro^R, VCaP-Enz^R, 22Rv1-Abi^R, 22Rv1-Apa^R, 22Rv1-Daro^R, and 22Rv1-Enz^R. Unless otherwise specified, the standard culture media for these SAT-resistant cell lines included 10 μM of their respective SAT. For the proteasome inhibitor study, the inhibitors MG132 and Epoxomicin are used. The E3 ligase inhibitors Heclin, Nutlin 3a, Thalidomide, and VH298 are used. Cell lines obtained from ATCC are confirmed by checking their morphology using optical microscopy, establishing baselines for cell proliferation, verifying species of origin using isoenzymology, and characterizing the cell's DNA fingerprint using short tandem repeat (STR) profiling. Mycoplasma contamination is also assessed using a PCR based detection system.
Selected compounds may be tested in the human prostate cancer cell line, 22Rv1-Enz^R, as described in Geun Tack Lee et al., Molecular Cancer Therapeutics, 20:490-9 (2021). These procedures are similar to that described in Experimental Example 1, above, except that the assay conditions are a 6-day culture with cell media changed every 24 hours.
`O=C(COc1c(-c2csc(N3CCOCC3)n2)ccc(F)c1F)NCCCCCCNc1ccc2nnn(C3CCC(=O)NC3=O)c(=O)c2c1` (stereo not shown) [Example 2, 2-(2,3-difluoro-6-(2-morpholinothiazol-4-yl)phenoxy)-N-(6-((3-(2,6-dioxopiperidin-3-yl)-4-oxo-3,4-dihydrobenzo[d][1,2,3]triazin-6-yl)amino)hexyl)acetamide] gave a pIC50 of over 5.00. `O=C(COc1c(-c2csc(N3CCOCC3)n2)ccc(F)c1F)NCCCCNc1ccc2nnn(C3CCC(=O)NC3=O)c(=O)c2c1` (stereo not shown) [Example 1, 2-(2,3-difluoro-6-(2-morpholinothiazol-4-yl)phenoxy)-N-(4-((3-(2,6-dioxopiperidin-3-yl)-4-oxo-3,4-dihydrobenzo[d][1,2,3]triazin-6-yl)amino)butyl)acetamide] was tested, and the pIC50 was over 4.00. Molecule `O=C(COc1c(-c2csc(N3CCOCC3)n2)ccc(F)c1F)NCCCCCCCCCCNc1ccc2nnn(C3CCC(=O)NC3=O)c(=O)c2c1` (stereo not shown) [Example 4, 2-(2,3-difluoro-6-(2-morpholinothiazol-4-yl)phenoxy)-N-(10-((3-(2,6-dioxopiperidin-3-yl)-4-oxo-3,4-dihydrobenzo[d][1,2,3]triazin-6-yl)amino)decyl)acetamide] has a pIC50 of over 5.00. `O=C1CCC(n2nnc3ccc(NCCOCCOCCOc4c(-c5csc(N6CCOCC6)n5)ccc(F)c4F)cc3c2=O)C(=O)N1` (stereo not shown) [Example 3, 3-(6-((2-(2-(2-(2,3-difluoro-6-(2-morpholinothiazol-4-yl)phenoxy)ethoxy)ethoxy)ethyl)amino)-4-oxobenzo[d][1,2,3]triazin-3(4H)-yl)piperidine-2,6-dione] was tested, and the pIC50 was over 4.00.

Reference: US20240317734A1, “BI-FUNCTIONAL COMPOUNDS AND METHODS FOR TARGETED UBIQUITINATION OF ANDROGEN RECEPTOR” (MONTELINO THERAPEUTICS, INC., priority 2021, published 2024)
